Measurements reported in PMC6978363, “Chaperone mediated detection of small molecule target binding in cells” (Nature Communications, 2020).

Experiments:
Experiment in all cases: biochemical
Conditions in all cases: read-out: % Inhibition (at 10mM)
[1] = biological target: AKT3 (Homo sapiens, UniProt Q9Y243)
[2] = biological target: T1, Aurora_B (Homo sapiens, UniProt Q96GD4)
T1 construct: gene AURKB

[3] = biological target: BrSK1 (Homo sapiens, UniProt Q8TDC3)
[4] = biological target: T2, CK1_delta (Homo sapiens, UniProt P48730)
T2 construct: gene CSNK1D

[5] = biological target: T3, DCAMKL2 (Homo sapiens, UniProt Q8N568)
T3 construct: gene DCLK2
T3 sequence (Q8N568 whole entry): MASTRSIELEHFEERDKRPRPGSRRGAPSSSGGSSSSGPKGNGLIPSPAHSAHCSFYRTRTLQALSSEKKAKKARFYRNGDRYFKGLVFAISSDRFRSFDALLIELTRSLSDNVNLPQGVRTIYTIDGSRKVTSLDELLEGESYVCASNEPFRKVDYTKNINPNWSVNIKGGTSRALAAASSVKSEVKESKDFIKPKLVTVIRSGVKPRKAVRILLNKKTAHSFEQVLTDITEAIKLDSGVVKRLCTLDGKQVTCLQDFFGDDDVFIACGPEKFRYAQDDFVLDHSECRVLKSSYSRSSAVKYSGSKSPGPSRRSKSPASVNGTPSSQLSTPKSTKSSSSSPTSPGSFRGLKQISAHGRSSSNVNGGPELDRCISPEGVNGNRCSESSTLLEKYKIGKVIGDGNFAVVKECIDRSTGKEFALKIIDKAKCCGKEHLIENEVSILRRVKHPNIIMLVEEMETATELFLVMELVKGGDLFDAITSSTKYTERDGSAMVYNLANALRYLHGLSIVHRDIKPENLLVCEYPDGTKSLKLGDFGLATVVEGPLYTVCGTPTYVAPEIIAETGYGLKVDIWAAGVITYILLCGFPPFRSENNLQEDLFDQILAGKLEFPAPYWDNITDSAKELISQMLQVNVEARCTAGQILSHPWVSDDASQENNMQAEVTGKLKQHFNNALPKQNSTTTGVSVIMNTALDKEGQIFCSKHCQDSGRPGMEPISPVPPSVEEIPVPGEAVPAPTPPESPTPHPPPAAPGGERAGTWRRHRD

[6] = biological target: EphA1 (Homo sapiens, UniProt P21709)
[7] = biological target: EphA4 (Homo sapiens, UniProt P54764)
Chain of EphA4 (P54764 whole entry): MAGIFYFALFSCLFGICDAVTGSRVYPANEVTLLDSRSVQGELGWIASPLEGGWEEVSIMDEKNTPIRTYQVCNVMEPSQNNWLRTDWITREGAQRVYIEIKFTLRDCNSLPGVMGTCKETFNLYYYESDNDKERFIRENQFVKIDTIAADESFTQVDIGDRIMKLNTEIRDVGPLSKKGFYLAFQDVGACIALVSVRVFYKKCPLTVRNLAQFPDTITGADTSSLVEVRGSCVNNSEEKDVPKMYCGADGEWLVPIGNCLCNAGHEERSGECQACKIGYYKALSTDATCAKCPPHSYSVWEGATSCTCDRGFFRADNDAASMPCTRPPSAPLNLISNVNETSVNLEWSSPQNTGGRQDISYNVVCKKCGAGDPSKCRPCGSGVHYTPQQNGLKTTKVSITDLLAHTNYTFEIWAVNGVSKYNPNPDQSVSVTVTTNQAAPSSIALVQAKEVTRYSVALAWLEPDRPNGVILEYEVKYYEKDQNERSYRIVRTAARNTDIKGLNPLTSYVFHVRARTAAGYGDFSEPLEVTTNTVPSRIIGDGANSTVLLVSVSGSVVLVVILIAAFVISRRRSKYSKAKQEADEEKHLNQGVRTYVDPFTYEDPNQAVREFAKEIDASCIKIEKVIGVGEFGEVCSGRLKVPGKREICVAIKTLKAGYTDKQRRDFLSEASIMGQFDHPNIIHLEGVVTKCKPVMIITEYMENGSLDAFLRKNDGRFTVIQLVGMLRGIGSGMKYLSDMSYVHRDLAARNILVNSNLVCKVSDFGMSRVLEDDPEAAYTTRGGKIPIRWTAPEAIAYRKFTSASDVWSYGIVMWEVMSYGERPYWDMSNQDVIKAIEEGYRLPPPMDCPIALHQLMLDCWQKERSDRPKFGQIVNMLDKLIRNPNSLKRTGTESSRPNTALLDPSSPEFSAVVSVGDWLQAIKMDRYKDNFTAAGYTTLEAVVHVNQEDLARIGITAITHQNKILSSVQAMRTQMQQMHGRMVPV

[8] = biological target: FGFR4 (Homo sapiens, UniProt P22455)
[9] = biological target: GRK3 (Homo sapiens, UniProt P35626)
[10] = biological target: HIPK1 (Homo sapiens, UniProt Q86Z02)
[11] = biological target: IGF1R (Homo sapiens, UniProt P08069)
[12] = biological target: T4, IKK_beta (Homo sapiens, UniProt O14920)
T4 construct: gene IKBKB

[13] = biological target: InsR (Homo sapiens, UniProt P06213)
[14] = biological target: PASK (Homo sapiens, UniProt Q96RG2)
[15] = biological target: T5, PCTK3 (Homo sapiens, UniProt Q07002)
T5 construct: gene CDK18

[16] = biological target: PEAK1 (Homo sapiens, UniProt Q9H792)
[17] = biological target: T6, PKA (Homo sapiens, UniProt P17612)
T6 construct: gene PRKACA

[18] = biological target: T7, PKC_beta2 (Homo sapiens, UniProt P05771)
T7 construct: gene PRKCB; isoform beta 2
T7 sequence (P05771 whole entry, canonical isoform): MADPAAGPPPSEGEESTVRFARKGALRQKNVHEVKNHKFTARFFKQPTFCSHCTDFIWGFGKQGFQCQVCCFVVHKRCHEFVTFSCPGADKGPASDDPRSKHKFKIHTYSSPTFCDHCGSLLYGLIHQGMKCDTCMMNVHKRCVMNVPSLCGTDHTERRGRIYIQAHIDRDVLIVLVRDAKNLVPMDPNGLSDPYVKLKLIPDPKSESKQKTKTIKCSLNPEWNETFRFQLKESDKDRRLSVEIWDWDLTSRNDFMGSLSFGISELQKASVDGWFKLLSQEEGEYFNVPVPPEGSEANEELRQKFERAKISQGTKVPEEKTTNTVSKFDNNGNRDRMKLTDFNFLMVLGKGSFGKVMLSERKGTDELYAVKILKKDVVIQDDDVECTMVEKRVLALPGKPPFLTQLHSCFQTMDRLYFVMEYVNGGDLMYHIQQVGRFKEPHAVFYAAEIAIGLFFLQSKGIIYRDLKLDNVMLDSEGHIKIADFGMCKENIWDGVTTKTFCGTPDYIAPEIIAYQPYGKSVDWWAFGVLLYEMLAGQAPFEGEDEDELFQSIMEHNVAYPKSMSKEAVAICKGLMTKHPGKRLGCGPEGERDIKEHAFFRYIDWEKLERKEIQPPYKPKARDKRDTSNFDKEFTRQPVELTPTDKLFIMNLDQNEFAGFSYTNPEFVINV

[19] = biological target: T8, PKC_delta (Homo sapiens, UniProt Q05655)
T8 construct: gene PRKCD

[20] = biological target: T9, PKC_theta (Homo sapiens, UniProt Q04759)
T9 construct: gene PRKCQ

[21] = biological target: T10, PKG1_alpha (Homo sapiens, UniProt Q13976)
T10 construct: gene PRKG1; isoform alpha

[22] = biological target: T11, PRK1 (Homo sapiens, UniProt Q16512)
T11 construct: gene PKN1

[23] = biological target: PRKAA2 (Homo sapiens, UniProt P54646)
[24] = biological target: ROCK1 (Homo sapiens, UniProt Q13464)
[25] = biological target: ROCK2 (Homo sapiens, UniProt O75116)
[26] = biological target: T12, RSK4 (Homo sapiens, UniProt Q9UK32)
T12 construct: gene RPS6KA6

[27] = biological target: SGK3 (Homo sapiens, UniProt Q96BR1)
[28] = biological target: SIK2 (Homo sapiens, UniProt Q9H0K1)
[29] = biological target: T13, Srm (Homo sapiens, UniProt Q9H3Y6)
T13 construct: gene SRMS
T13 sequence (Q9H3Y6 whole entry): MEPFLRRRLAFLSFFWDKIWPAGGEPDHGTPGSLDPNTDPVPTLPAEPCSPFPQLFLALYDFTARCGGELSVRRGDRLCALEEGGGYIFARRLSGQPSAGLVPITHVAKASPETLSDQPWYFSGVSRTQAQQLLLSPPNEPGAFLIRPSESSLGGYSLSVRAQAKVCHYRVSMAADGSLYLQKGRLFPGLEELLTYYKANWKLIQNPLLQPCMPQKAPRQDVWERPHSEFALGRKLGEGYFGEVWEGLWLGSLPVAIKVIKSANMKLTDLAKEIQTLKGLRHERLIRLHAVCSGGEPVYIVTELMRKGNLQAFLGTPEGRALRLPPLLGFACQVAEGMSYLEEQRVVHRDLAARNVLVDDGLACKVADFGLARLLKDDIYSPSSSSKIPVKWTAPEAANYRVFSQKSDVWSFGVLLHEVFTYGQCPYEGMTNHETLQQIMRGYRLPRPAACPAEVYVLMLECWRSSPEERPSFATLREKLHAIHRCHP

[30] = biological target: TBK1 (Homo sapiens, UniProt Q9UHD2)
[31] = biological target: T14, TSSK1 (Homo sapiens, UniProt Q9BXA7)
T14 construct: gene TSSK1B

[32] = biological target: TSSK2 (Homo sapiens, UniProt Q96PF2)
[33] = biological target: T15, TrkC (Homo sapiens, UniProt Q16288)
T15 construct: gene NTRK3
T15 sequence (Q16288 whole entry): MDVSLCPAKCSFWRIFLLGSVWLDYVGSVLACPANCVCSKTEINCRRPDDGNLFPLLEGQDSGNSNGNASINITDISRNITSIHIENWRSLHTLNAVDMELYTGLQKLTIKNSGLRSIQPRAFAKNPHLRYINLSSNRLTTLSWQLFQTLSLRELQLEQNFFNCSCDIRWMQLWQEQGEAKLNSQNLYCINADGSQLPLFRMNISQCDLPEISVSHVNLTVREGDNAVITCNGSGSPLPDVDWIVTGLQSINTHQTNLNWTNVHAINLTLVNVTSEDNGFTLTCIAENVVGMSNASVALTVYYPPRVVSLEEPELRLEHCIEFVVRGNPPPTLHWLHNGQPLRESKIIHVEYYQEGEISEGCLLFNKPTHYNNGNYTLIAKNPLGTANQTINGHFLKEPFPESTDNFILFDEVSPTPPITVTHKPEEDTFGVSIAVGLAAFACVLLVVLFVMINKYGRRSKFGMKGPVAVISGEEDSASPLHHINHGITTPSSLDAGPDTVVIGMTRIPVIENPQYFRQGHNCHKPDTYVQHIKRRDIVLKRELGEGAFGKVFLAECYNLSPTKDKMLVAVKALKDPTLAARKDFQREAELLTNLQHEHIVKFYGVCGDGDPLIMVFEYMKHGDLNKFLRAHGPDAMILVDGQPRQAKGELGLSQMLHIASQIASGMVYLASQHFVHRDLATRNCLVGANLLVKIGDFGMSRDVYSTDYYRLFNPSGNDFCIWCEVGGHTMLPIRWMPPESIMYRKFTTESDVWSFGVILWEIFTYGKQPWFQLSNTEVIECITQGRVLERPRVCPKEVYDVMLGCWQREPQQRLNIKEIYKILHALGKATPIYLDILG

[34] = biological target: T16, Yes (Homo sapiens, UniProt P07947)
T16 construct: gene YES1
T16 sequence (P07947 whole entry): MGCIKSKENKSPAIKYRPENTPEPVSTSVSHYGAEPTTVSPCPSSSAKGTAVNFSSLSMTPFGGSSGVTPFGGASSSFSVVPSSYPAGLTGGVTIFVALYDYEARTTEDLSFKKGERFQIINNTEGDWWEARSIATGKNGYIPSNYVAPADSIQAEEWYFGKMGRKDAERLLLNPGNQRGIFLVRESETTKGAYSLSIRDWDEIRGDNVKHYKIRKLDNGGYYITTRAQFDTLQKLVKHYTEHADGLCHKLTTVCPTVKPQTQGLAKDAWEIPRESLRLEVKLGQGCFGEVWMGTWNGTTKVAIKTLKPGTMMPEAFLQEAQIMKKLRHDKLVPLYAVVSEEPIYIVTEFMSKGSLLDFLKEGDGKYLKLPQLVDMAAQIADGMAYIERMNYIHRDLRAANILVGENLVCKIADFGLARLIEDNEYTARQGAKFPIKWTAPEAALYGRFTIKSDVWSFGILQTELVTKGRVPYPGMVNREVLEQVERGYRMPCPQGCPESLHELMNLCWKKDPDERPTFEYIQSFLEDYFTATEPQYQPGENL

[35] = biological target: T17, ZIPK (Homo sapiens, UniProt O43293)
T17 construct: gene DAPK3
T17 sequence (O43293 whole entry): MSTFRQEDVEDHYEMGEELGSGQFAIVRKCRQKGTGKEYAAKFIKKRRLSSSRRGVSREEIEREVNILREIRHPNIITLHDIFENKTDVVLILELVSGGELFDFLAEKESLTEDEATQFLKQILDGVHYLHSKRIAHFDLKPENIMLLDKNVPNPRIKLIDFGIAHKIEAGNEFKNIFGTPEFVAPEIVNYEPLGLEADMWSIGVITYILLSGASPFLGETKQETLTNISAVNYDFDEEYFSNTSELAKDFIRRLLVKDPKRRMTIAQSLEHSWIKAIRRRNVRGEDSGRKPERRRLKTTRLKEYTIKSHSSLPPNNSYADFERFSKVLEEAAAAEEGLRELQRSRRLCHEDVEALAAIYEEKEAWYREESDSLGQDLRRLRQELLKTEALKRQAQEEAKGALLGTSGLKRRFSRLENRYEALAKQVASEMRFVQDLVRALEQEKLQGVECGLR

[36] = biological target: T18, p38_alpha(direct) (Homo sapiens, UniProt Q16539)
T18 construct: gene MAPK14; direct

[37] = biological target: T19, p38_delta (Homo sapiens, UniProt O15264)
T19 construct: gene MAPK13

inhibition [1]: 5%
inhibition [2]: 68%
inhibition [3]: 5%
inhibition [4]: -1.5%
inhibition [5]: -9.5%
inhibition [6]: 7%
inhibition [7]: 9%
inhibition [8]: 6%
inhibition [9]: -5.5%
inhibition [10]: 4.5%
inhibition [11]: 5%
inhibition [12]: -0.5%
inhibition [13]: 9.5%
inhibition [14]: 2.5%
inhibition [15]: 6%
inhibition [16]: 11%
inhibition [17]: 2.5%
inhibition [18]: 9.5%
inhibition [19]: 15.5%
inhibition [20]: 12%
inhibition [21]: 0%
inhibition [22]: -7%
inhibition [23]: 10.5%
inhibition [24]: -1.5%
inhibition [25]: -0.5%
inhibition [26]: 2.5%
inhibition [27]: 2%
inhibition [28]: 9.5%
inhibition [29]: 13.5%
inhibition [30]: 8%
inhibition [31]: -6.5%
inhibition [32]: 10.5%
inhibition [33]: 6%
inhibition [34]: 83%
inhibition [35]: 7%
inhibition [36]: 4%
inhibition [37]: 5.5%
SMILES: CC(C)(O)CC(=O)NCCn1ccc2ncnc(Nc3ccc(Oc4cccc(C(F)(F)F)c4)c(Cl)c3)c21 [TAK-285]
